In US12077503B2, “Substituted cyclic amides and their use as herbicides” (FMC CORPORATION, priority 2015, dated 2024):

What was measured:
Format in all cases: in vivo
[1] = tested on: ryegrass, Italian (Italian ryegrass, Lolium multiflorum); test: Test A preemergence; conditions: Preemergence; for Plant response rating, Ryegrass, Italian: 125 g ai/ha, visual injury after approximately 10 d, 0 to 100 scale where 0 is no effect and 100 is complete control; for Ryegrass, Italian plant response rating (0 to 100 scale, 0 is no effect, 100 is complete control): 500 g ai/ha, visual injury approx. 10 d
Excerpt: (§1) Seeds of plant species selected from barnyardgrass (Echinochloa crus-galli), Kochia (Kochia scoparia), ragweed (common ragweed, Ambrosia elatior), ryegrass, Italian (Italian ryegrass, Lolium multiflorum), crabgrass, large (Digitaria sanguinalis), giant foxtail (Setaria faberii), green foxtail (Setaria viridis), morningglory (Ipomoea spp.), pigweed (Amaranthus retroflexus), velvetleaf (Abutilon theophrasti), wheat (Triticum aestivum), and corn (Zea mays) were planted into a blend of loam soil and sand and treated preemergence with a directed soil spray using test chemicals formulated in anon-phytotoxic solvent mixture which included a surfactant.
(§2) At the same time, plants selected from these crop and weed species and also blackgrass (Alopecurus myosuroides), and Galium (catchweed bedstraw, Galium aparine) were planted in pots containing the same blend of loam soil and sand and treated with postemergence applications of test chemicals formulated in the same manner. Plants ranged in height from 2 to 10 cm and were in the one- to two-leaf stage for the postemergence treatment. Treated plants and untreated controls were maintained in a greenhouse for approximately 10 d, after which time all treated plants were compared to untreated controls and visually evaluated for injury. Plant response ratings, summarized in Table A, are based on a 0 to 100 scale where 0 is no effect and 100 is complete control. A dash (-) response means no test result.

[2] = tested on: giant foxtail (Setaria faberii); test: Test A preemergence; conditions: Preemergence; for Plant response rating, Foxtail, Giant: 125 g ai/ha, visual injury after approximately 10 d, 0 to 100 scale where 0 is no effect and 100 is complete control; for Foxtail, Giant plant response rating (0 to 100 scale, 0 is no effect, 100 is complete control): 500 g ai/ha, visual injury approx. 10 d
Excerpt: as §1, §2

[3] = tested on: pigweed (Amaranthus retroflexus); test: Test A preemergence; conditions: Preemergence; for Plant response rating, Pigweed: 125 g ai/ha, visual injury after approximately 10 d, 0 to 100 scale where 0 is no effect and 100 is complete control; for Pigweed plant response rating (0 to 100 scale, 0 is no effect, 100 is complete control): 500 g ai/ha, visual injury approx. 10 d
Excerpt: as §1, §2

[4] = tested on: Kochia (Kochia scoparia); test: Test A preemergence; conditions: Preemergence; for Plant response rating, Kochia: 125 g ai/ha, visual injury after approximately 10 d, 0 to 100 scale where 0 is no effect and 100 is complete control; for Kochia plant response rating (0 to 100 scale, 0 is no effect, 100 is complete control): 500 g ai/ha, visual injury approx. 10 d
Excerpt: as §1, §2

[5] = tested on: ragweed (common ragweed, Ambrosia elatior); test: Test A preemergence; conditions: Preemergence; for Plant response rating, Ragweed: 125 g ai/ha, visual injury after approximately 10 d, 0 to 100 scale where 0 is no effect and 100 is complete control; for Ragweed plant response rating (0 to 100 scale, 0 is no effect, 100 is complete control): 500 g ai/ha, visual injury approx. 10 d
Excerpt: as §1, §2

[6] = tested on: barnyardgrass (Echinochloa crus-galli); test: Test A preemergence; conditions: Preemergence; for Plant response rating, Barnyardgrass: 125 g ai/ha, visual injury after approximately 10 d, 0 to 100 scale where 0 is no effect and 100 is complete control; for Barnyardgrass plant response rating (0 to 100 scale, 0 is no effect, 100 is complete control): 500 g ai/ha, visual injury approx. 10 d
Excerpt: as §1, §2

[7] = tested on: ryegrass, Italian (Italian ryegrass, Lolium multiflorum); test: Test A postemergence
Excerpt: as §1, §2

[8] = tested on: wheat (Triticum aestivum); test: Test A postemergence
Excerpt: as §1, §2

[9] = tested on: corn (Zea mays); test: Test A postemergence
Excerpt: as §1, §2

[10] = tested on: giant foxtail (Setaria faberii); test: Test A postemergence
Excerpt: as §1, §2

[11] = tested on: blackgrass (Alopecurus myosuroides); test: Test A postemergence
Excerpt: as §1, §2

[12] = tested on: pigweed (Amaranthus retroflexus); test: Test A postemergence
Excerpt: as §1, §2

[13] = tested on: Kochia (Kochia scoparia); test: Test A postemergence
Excerpt: as §1, §2

[14] = tested on: ragweed (common ragweed, Ambrosia elatior); test: Test A postemergence
Excerpt: as §1, §2

[15] = tested on: barnyardgrass (Echinochloa crus-galli); test: Test A postemergence
Excerpt: as §1, §2

[16] = tested on: Galium (catchweed bedstraw, Galium aparine); test: Test A postemergence
Excerpt: as §1, §2

[17] = 125 g ai/ha, postemergence, visual rating after approx. 10 d, 0 to 100 scale (0 no effect, 100 complete control)
[18] = Postemergence, 500 g ai/ha, 0 to 100 scale where 0 is no effect and 100 is complete control

| Structure (SMILES) | Plant response rating, Ryegrass, Italian [1] | Ryegrass, Italian plant response rating (0 to 100 scale, 0 is no effect, 100 is complete control) [1] | Plant response rating, Foxtail, Giant [2] | Foxtail, Giant plant response rating (0 to 100 scale, 0 is no effect, 100 is complete control) [2] | Plant response rating, Pigweed [3] | Pigweed plant response rating (0 to 100 scale, 0 is no effect, 100 is complete control) [3] | Plant response rating, Kochia [4] | Kochia plant response rating (0 to 100 scale, 0 is no effect, 100 is complete control) [4] | Plant response rating, Ragweed [5] | Ragweed plant response rating (0 to 100 scale, 0 is no effect, 100 is complete control) [5] | Plant response rating, Barnyardgrass [6] | Barnyardgrass plant response rating (0 to 100 scale, 0 is no effect, 100 is complete control) [6] | Plant response rating, Ryegrass, Italian [7, 17] | Plant response rating, Ryegrass, Italian [7, 18] | Plant response rating, Wheat [8, 17] | Plant response rating, Wheat [8, 18] | Plant response rating, Corn [9, 17] | Plant response rating, Corn [9, 18] | Plant response rating, Foxtail, Giant [10, 17] | Plant response rating, Foxtail, Giant [10, 18] | further results |
| --- | --- | --- | --- | --- | --- | --- | --- | --- | --- | --- | --- | --- | --- | --- | --- | --- | --- | --- | --- | --- | --- |
| Cc1ccc(C2CN(C)C(=O)C2C(=O)Nc2ccc(F)cc2F)c(F)c1 (stereo not shown) [Compound 559] | 0 | 50 | 90 | 100 | 20 | 50 | 60 | 80 | 0 | 20 | 90 | 100 | 0 | 30 | 0 | 50 | 0 | 30 | 90 | 90 | Plant response rating, Blackgrass [11, 17]: 20; Plant response rating, Blackgrass [11, 18]: 60; Plant response rating, Pigweed [12, 17]: 0; Plant response rating, Pigweed [12, 18]: 0; Plant response rating, Kochia [13, 17]: 30; Plant response rating, Kochia [13, 18]: 70; Plant response rating, Ragweed [14, 17]: 0; Plant response rating, Ragweed [14, 18]: 0; Plant response rating, Barnyardgrass [15, 17]: 90; Plant response rating, Barnyardgrass [15, 18]: 100; Plant response rating, Galium [16, 17]: 50; Plant response rating, Galium [16, 18]: 60 |
| Cc1ccc(C2CN(C)C(=O)C2C(=O)Nc2ccccc2F)c(F)c1 (stereo not shown) [Compound 560] | 0 | 70 | 100 | 100 | 0 | 40 | 60 | 80 | 0 | 0 | 90 | 100 | 0 | 60 | 0 | 50 | 0 | 30 | 90 | 90 | Plant response rating, Blackgrass [11, 17]: 30; Plant response rating, Blackgrass [11, 18]: 50; Plant response rating, Pigweed [12, 17]: 0; Plant response rating, Pigweed [12, 18]: 20; Plant response rating, Kochia [13, 17]: 40; Plant response rating, Kochia [13, 18]: 80; Plant response rating, Ragweed [14, 17]: 0; Plant response rating, Ragweed [14, 18]: 20; Plant response rating, Barnyardgrass [15, 17]: 90; Plant response rating, Barnyardgrass [15, 18]: 100; Plant response rating, Galium [16, 17]: 40; Plant response rating, Galium [16, 18]: 60 |
